The values that follow come from ChEMBL document CHEMBL5335812, “PSMA-targeted SMART molecules outfitted with SN38” (Bioorg Med Chem Lett, 2024).

The test system of one data set is LNCaP C4-2B. Put plainly: Antiproliferative activity against human C4-2B cells expressing PSMA assessed as reduction in cell viability incubated for 72 hrs by cellTiter-Glo Luminescent cell viability assay. In general terms: Cellular ATP, detected with luciferase, serves as a proxy for viable cell number.
The nature of data set [1]: Drug metabolism in human PC-3 cells with PSMA knockout assessed as intracellular SN38 release incubated for 30 min by confocal microscopy. The following applies: pc-3, 0.5 h. It counts as ADME, cell-based.
A further data set concerns PC-3. Put plainly: Antiproliferative activity against human PC-3 cells with PSMA knockout assessed as reduction in cell viability incubated for 72 hrs by cellTiter-Glo Luminescent cell viability assay. It counts as functional, cell-based.
The nature of data set [2]: Drug metabolism in human C4-2B cells expressing PSMA assessed as payload release incubated for 30 min by confocal microscopy. It counts as ADME, cell-based. To be noted: lncap c4-2b, 0.5 h.
A short description of data set [3]: Stability of the compound assessed as kinetic half life at pH 4.5. To be noted: buffer. It counts as physicochemical.
A short description of data set [4]: Stability of the compound assessed as kinetic half life at pH 5.5. It counts as physicochemical. The following applies: buffer.
The nature of data set [5]: Stability of the compound assessed as kinetic half life at pH 6. The data set is classed as physicochemical. To be noted: buffer.
Data set [6] is described as follows: Stability of the compound assessed as hydrolysis at pH 7.4 measured after 8 hrs by 31P NMR. To be noted: buffer, pH 7.4, 8 h. The data set is classed as physicochemical.
A short description of data set [7]: Stability of the compound assessed as kinetic half life at pH 5. The data set is classed as physicochemical. To be noted: buffer.
Data set [8] in a line: Stability of the compound at pH 7.4. To be noted: buffer. The data set is classed as physicochemical.
A short description of data set [9]: Stability of the compound assessed as payload release at pH 5.0 measured after 18 hrs by fluorescence based analysis. It counts as physicochemical. The following applies: buffer, pH 5, 18 h.
Data set [10] can be described thus: Stability of the compound assessed as payload release at pH 5.5 measured after 18 hrs by fluorescence based analysis. The following applies: buffer, pH 5.5, 18 h. It counts as physicochemical.
Data set [11] in a line: Stability of the compound assessed as payload release at pH 7.4 measured after 18 hrs by fluorescence based analysis. It counts as physicochemical. The following applies: buffer, pH 7.4, 18 h.

Structures are written as SMILES. pIC50: −log10 of the molar value. Calls of active or inactive are those of the source. No cut-off for these calls is given here.

`CCc1c2c(nc3ccc(OC(=O)N(C)CCN(C)P(=O)(O)OCC[C@H](NC(=O)c4ccc(Cn5nnc6c5-c5ccccc5CN(C(=O)CCC(=O)NCCOCCOCCOCCOCCC(=O)NCCCCCC(=O)N[C@@H](CCC(=O)N[C@@H](CCCOP(=O)(O)N[C@@H](CCC(=O)O)C(=O)O)C(=O)O)C(=O)O)c5ccccc5-6)cc4)C(=O)O)cc13)-c1cc3c(c(=O)n1C2)COC(=O)[C@]3(O)CC`: the pIC50 in the data set on LNCaP C4-2B is 8.52. The Drug metabolism result in data set [1] is “Metabolite_Notdetected”; in data set [2], “Metabolite_Detected”. The result with PC-3 was inactive.
In the case of `CCc1c2c(nc3ccc(OC(=O)N(C)CCN(C)P(=O)(O)OCC[C@H](NC(=O)c4ccc(CN=[N+]=[N-])cc4)C(=O)O)cc13)-c1cc3c(c(=O)n1C2)COC(=O)[C@]3(O)CC`, the half-life in data set [3] is 1.9 h; in [4], 11 h; in [5], 42 h; in data set [7], 4.3 h. The Stability entry in data set [6] and in data set [8] was “Stable” each time.
Consider `CCc1c2c(nc3ccc(O)cc13)-c1cc3c(c(=O)n1C2)COC(=O)[C@]3(O)CC` [7-ETHYL-10-HYDROXYCAMPTOTHECIN], for which the Activity in [9] is reported as 25%; in [10], ~ 25%. The Stability entry in [11] was “Stable”.

As usually defined, the pIC50 is the IC50 on a negative log10 scale, so that one unit is a factor of ten. The term half-life denotes how long it takes for the measured level to halve.
